The text below walks through data of patent publication US4835157A, “Thieno- and furopyrimidine-2,4-dione piperidine derivatives as serotonin antagonists and alpha adrenergic blocking agents” (Ortho Pharmaceutical Corporation, priority 1988, dated 1989).

In assay [1] the test system is Serotonin-Induced Smooth Muscle Contractions (rabbit thoracic aorta). The assay is described as follows: Inhibition of Serotonin-Induced Smooth Muscle Contractions (isolated thoracic aorta strips). The format is cell-based. As to conditions: Oryctolagus cuniculus, 10 min, concentration shifting the serotonin dose curve 10x to the right, 10 min preincubation, read-out: 5-HT-Induced Smooth Muscle Contraction DR10. How it is done: Inhibition of Serotonin-Induced Smooth Muscle Contractions
The test objects of this Example were canines and rabbits. Rabbits were sacrificed by T-61 injection and the thoracic aorta was removed immediately. The aorta was placed in warmed, oxygenated Krebs-Henseleit buffer. After the tissue was cleaned, a 2-3 mm wide strip was cut helically from each aorta. A strip of approximately 5 cm was suspended in Krebs-Henseleit buffer at 37° C. in a 25 ml tissue bath and the tissues equilibrated at an initial resting tension of 4 g for 90-120 minutes. An initial serotonin dose curve, 0.01-10 μM was then done on each tissue, followed by a 60 minute washout and reequilibration. The test drug was then added for a 10 minute preincubation and another serotonin dose curve was done using 0.01-100 μM.
Results are expressed as DR10 values. This is the concentration of the compound required to shift the serotonin dose curve 10x to the right, i.e., the concentration of antagonist at which the concentration of serotonin required for 50% maximal contraction is increased ten-fold.

A further assay concerns serotonin receptors. The assay is described as follows: Inhibition of 5-HTP-Induced Head Twitching. The format is in vivo. The settings on record: male CD1 mice; for Inhibit. of 5-HTP-Head Twitch ED50: 5-HTP 160 mg/kg i.v. after one hour. On the procedure:
Inhibition of 5-HTP-Induced Head Twitching
This test detects compounds with antagonistic activity of serotonin receptors in vivo, and is a modified procedure of Corne, Pickering and Warner, Brit. J. Pharmacol. 20, 106 (1963). Groups of male CD1 mice were fasted overnight but allowed water ad libitum. They were deprived of water during the course of the experiment. The mice were weighed and treated orally or parenterally with the test compound in a dose volume of 10 ml/kg. Doses of test substance were calculated based upon the active compound. Substances for oral administration were dissolved or suspended in a 0.5% aqueous methylcellulose (15 centipoises) vehicle containing 4 ml of Tween 80/l.
A dose of 160 mg/kg of L-5-hydroxytryptophan (5-HTP) was administered i.v. in a dose volume of 5 ml/kg after one hour. The test mouse was restrained in a rodent restrainer that allowed the tail to extend out the back. The tail was then placed in tepid (but not scalding) water for approximately 10 seconds to soften the skin and dilate the tail vein. A 1 ml syringe and 25 gauge (5/8 inch) needle was used to administer the 5-HTP solution into one of the lateral tail veins.
A timer was started after dosing with 5-HTP to the first animal of the test group. […] A head twitch involves the head, neck and ears and has the appearance of an exaggerated pinal reflex. The number of head twitches for each individual vehicle-treated mouse were recorded to establish a historical baseline.
The active compounds in the test block the twitch response (the response rated all or none).

Assay [2] deals with serotonin-induced platelet aggregation. The assay can be described thus: Platelet Aggregation Assay (serotonin-induced). The format is cell-based. The settings on record: Platelet; human plasma, serotonin 5 μM. On the procedure:
Platelet Aggegation Assay
Human blood was collected into tubes containing sodium citrate. The plasma was separated by centrifugation and was used as the source of platelets. Serotonin (5 μM) was used as the agonist to induce platelet aggregation. A control aggregation curve (as measured by the decrease in absorbance in transmitted light) was obtained in the presence of serotonin and in the absence of test compound. The test compound was added to an identical sample in a cuvette for one minute before addition of serotonin to yield the experimental curve.

Assay [3] addresses T1, 5HT2 (Rattus norvegicus, UniProt P14842). The assay is described as follows: Brain Serotonin (5-HT2) Radioreceptor Assay (3H-ketanserin displacement, rat frontal cortex membranes). The format is binding. More on the design: dissected from brains obtained from female rats; from tissue; host or cells: frontal cortex of female rats (about 150 g), membrane fragments. The settings on record: 15 min at 37° C. On the procedure:
Brain Serotonin (5-HT2) Radioreceptor Assay
The test objects of this Example were rat frontal cortex membranes. Mebrane fragments were prepared from the frontal cortex dissected from brains obtained from female rats (≈150 g). […] Compound bound to the receptor site was separated from the remaining unbound compound by vacuum filtration. […] Specific binding was determined by the difference between total counts bound and counts bound in the presence of 10^-6 M methysergide.

Assay [4] addresses T1, 5HT2. The assay can be described thus: 5HT2 Blockade in vivo (antagonism of 5HT induced pressor responses). More on the design: Spontaneously hypertensive rats were anesthetized with sodium pentobarbital; from tissue; host or cells: whole animal: anesthetized spontaneously hypertensive rats (vasculature); species or system spontaneously hypertensive rats. As to conditions: for ED50: rat, iv, read-out: 5-HT-Induced Pressor Response ED50. On the procedure:
Antagonism of 5HT induced pressor responses was used to assess 5HT2 blockade in vivo. Spontaneously hypertensive rats were anesthetized with sodium pentobarbital (50 mg/kg, i.p.). The right carotid artery and vein were cannulated for pressure recording and drug injection, respectively. The trachea was cannulated, the rat placed on a respirator and ventilated with room air at 50-60 breaths/minute. Rats were pretreated with prazosin hydrochloride (1 mg/kg, i.v., blous) and pentolinium tartrate (5 mg/kg, i.v., bolus). After 10 minutes equilibration, the rat was challenged with 5HT (100 μg/kg) which elevates mean arterial pressure (MAP) 60-100 mmHg; non-responsive rats were discarded.
After a baseline had been reestablished, bolus injections of 5HT (100 μg/kg, i.v.) were given and the MAP responses were evaluated both pre- and post-drug administration. 5HT challenges were repeated 10 minutes after each dose of antagonist. Up to three cumulative doses of the antagonist were given to a single animal.

In assay [5] the test system is Spontaneously Hypertensive Rats (SHR). The assay is described as follows: Antihypertensive Activity in Spontaneously Hypertensive Rats (SHR). The format is in vivo, rat. The settings on record: @ 5 mg/kg p.o., 4 h monitoring. How it is done: Antihypertensive Activity in Spontaneously Hypertensive Rats (SHR)
Antihypertensive activity was assessed using the following procedure. Adult male SHR were surgically prepared with arterial cannuli under light ether anesthesia and given 60-90 minute post-surgical recovery. Mean arterial pressure (MAP) was continuously monitored via the arterial line. After baseline MAP was recorded, groups of 3-6 SHR received a single dose of drug or vehicle (0.5% methylcellulose) administered by gavage at doses of 1 to 5 mg/kg.MAP was monitored for four hours post-dosing.
Maximal changes in MAP were reported.

The subject of assay [6] is alpha1 adrenergic receptor. The assay can be described thus: Alpha1 Blockade in vivo (inhibition of phenylephrine pressor response). More on the design: species or system spontaneously hypertensive rats (SHR). As to conditions: anesthetized, vagotomized SHR; i.v. How it is done:
The potency of these compounds as alpha1 adrenergic antagonists was determined using the following procedure: adult male spontaneously hypertensive rats (SHR) were anesthetized and bilaterally vagotomized. A carotid artery and jugular vein were cannulated for monitoring mean arterial blood pressure and drug administration, respectively. The percent inhibition of alpha1 adrenergic receptor activation was quantified by measuring pressor responses to phenylephrine before and after antagonist treatment. […] Compounds were tested to the limits of their solubility for intravenous administration.

The target of the next assay is T2, 5HT1A receptor (Rattus norvegicus, UniProt P19327).
T2 construct: Membrane fragments were prepared from prefrontal cortex; from tissue; host or cells: prefrontal/frontal cortex of female rats (about 150 g), membrane fragments
T2 sequence (P19327 1-422): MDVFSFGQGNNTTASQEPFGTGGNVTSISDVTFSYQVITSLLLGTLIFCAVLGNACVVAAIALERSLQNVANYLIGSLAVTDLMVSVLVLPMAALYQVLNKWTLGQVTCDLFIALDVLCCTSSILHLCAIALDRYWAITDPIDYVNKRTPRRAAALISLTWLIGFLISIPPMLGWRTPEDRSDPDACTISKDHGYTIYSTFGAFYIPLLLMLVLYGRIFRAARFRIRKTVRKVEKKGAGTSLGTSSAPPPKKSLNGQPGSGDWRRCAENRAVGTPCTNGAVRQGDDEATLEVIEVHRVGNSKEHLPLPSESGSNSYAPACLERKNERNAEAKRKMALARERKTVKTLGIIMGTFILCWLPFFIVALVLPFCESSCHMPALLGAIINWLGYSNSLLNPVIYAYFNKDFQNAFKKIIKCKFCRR
The assay is described as follows: Brain Serotonin (5HT1A) radioreceptor Assay (3H-8-OH DPAT displacement, rat frontal cortex membranes). The format is binding. As to conditions: for inhibition at 1 µM: read-out: Brain 5-HT1 Receptor % displaced (% inhibition). How it is done: Brain Serotonin (5HT1A) radioreceptor Assay
The text objects of this procedure were rat frontal cortex membranes. Membrane fragments were prepared from prefrontal cortex disected from brains obtained from female rats (≈150 g). The 5HT1A sites were labeled with ^3 H-8-OH dipropylaminotetralin (8-OH-DPAT). Membrane fragments, ^3 H-8-OH DPAT, TRIS buffer (pH 7.4) and unlabeled compound were incubated for 10 minutes at 37° C. and then for 10 minutes at 4° C. Separation of bound from unbound ^3 H-8-OH DPAT was performed by vacuum filtration on a glass fiber disc. The ability of a compound to compete with ^3 H-8-OH DPAT for binding sites is a measure of the affinity of the compound for the 5HT1A receptor. Specific binding was determined by the difference between total counts bound and the counts bound in the presence of […] 5-hydroxytryptamine.

Usually IC50 stands for the concentration that inhibits the measured activity by half. Broadly, the ED50 is the dose that gives a 50% effect, or the effect in half of the subjects. As usually defined, the inhibition is the percentage by which the read-out fell short of the control.

Like-named read-outs stand apart in the source and are kept apart here.

T1 sequence (P14842 whole entry, the tested form may be a part): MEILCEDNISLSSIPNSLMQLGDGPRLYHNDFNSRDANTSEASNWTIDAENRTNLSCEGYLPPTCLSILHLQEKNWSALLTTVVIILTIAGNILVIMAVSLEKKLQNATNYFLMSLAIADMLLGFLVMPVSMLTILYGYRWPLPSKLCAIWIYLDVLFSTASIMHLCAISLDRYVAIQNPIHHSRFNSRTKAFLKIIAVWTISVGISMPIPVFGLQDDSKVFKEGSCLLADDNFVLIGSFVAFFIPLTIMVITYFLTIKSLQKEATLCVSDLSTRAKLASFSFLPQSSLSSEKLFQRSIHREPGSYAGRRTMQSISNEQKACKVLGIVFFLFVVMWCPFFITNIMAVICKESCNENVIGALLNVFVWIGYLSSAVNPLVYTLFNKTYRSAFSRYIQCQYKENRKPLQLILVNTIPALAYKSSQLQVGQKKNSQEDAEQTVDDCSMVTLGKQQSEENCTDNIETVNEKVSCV

For the compound `O=C(c1ccc(F)cc1)C1CCN(CCn2c(=O)[nH]c3ccsc3c2=O)CC1` [Example 1, 3-[2-[4-(4-Fluorobenzoyl)piperidin-1-yl]ethyl]thieno[3,2-d]pyrimidine-2,4-dione], the IC (10-fold shift) in assay [1] worked out at 0.0063 µM. For the same compound, the “Inhibit. of 5-HTP-Head Twitch ED50” value with serotonin receptors is 2.1 mg/kg, p.o. Further, the half-maximal inhibitory concentration (IC50) is 34 nM in assay [2]; 0.6 nM at 5HT2 [3]; 16000 nM on 5HT1A receptor (rat frontal cortex membranes, 3H-8-OH DPAT, pH 7.4, read-out: Brain 5-HT1 Receptor IC50). Further, the median effective dose (ED50) at 5HT2 [4] came out at 0.009 mg/kg. In addition, in assay [5], the “Antihypertensive Activity, p.o., % AMAP (maximal change in mean arterial pressure)” value is on record as -10%. In assay [6], the “Phenylephrine-Induced Pressor Response ED50” value is > 10 mg/kg.
Regarding `CC(=O)n1c(=O)n(CCN2CCC(C(=O)c3ccc(F)cc3)CC2)c(=O)c2ccsc21` [Example 3, 1-Acetyl-3-[2-[4-(4-fluorobenzoyl)piperidin-1-yl]ethyl]thieno[2,3-d]pyrimidine-2,4-dione], the IC (10-fold shift) in assay [1] stood at 0.0229 µM. In addition, in the assay on serotonin receptors (@ 10 (mg/kg, p.o.)), the “Inhibit. of 5-HTP-Head Twitch (result in words)” value is listed as “Inact”. Also, the IC50 came out at 8000 nM in assay [2] and 2.4 nM on 5HT2 [3]. Further, the ED50 at 5HT2 [4] was 0.025 mg/kg. The “Antihypertensive Activity, p.o., % AMAP (maximal change in mean arterial pressure)” value in assay [5] is given as -4%. Moreover, in assay [6], the “Phenylephrine-Induced Pressor Response ED50” value is given as 10.0 mg/kg. Moreover, the inhibition at 1 µM on 5HT1A receptor (3H-8-OH DPAT) worked out at 13%.
As to `O=c1[nH]c2sccc2c(=O)n1CCN1CCC(=C(c2ccc(F)cc2)c2ccc(F)cc2)CC1` [Example 6, 3-[2-[4-[Bis(4-fluorophenyl)methylene]piperidin-1-yl]ethyl]thieno[2,3-d]pyrimidine-2,4-dione], the IC (10-fold shift) in assay [1] was found to be 0.00899 µM. Moreover, the values for the 50% inhibitory concentration (IC50) (in assay [2]; at 5HT2 [3]) were 4500 nM and 0.8 nM, respectively. In addition, the median effective dose (ED50) on 5HT2 [4] is 0.23 mg/kg. In addition, the “Antihypertensive Activity, p.o., % AMAP (maximal change in mean arterial pressure)” value in assay [5] is recorded as -13%. The “Phenylephrine-Induced Pressor Response ED50” value in assay [6] was > 3 mg/kg. The inhibition at 1 µM at 5HT1A receptor (3H-8-OH DPAT) is 24%.
As to `O=C(c1ccc(F)cc1)C1CCN(CCn2c(=O)[nH]c3ccccc3c2=O)CC1` [Ketanserin, reference compound], the “Inhibit. of 5-HTP-Head Twitch ED50” value in the assay on serotonin receptors is reported as 0.67 mg/kg, p.o. Besides, the values for the IC50 (in assay [2]; at 5HT1A receptor) were 32 nM and 24500 nM, respectively. Further, at 5HT2 [4] (anesthetized SHR, 5HT 100 μg/kg i.v., cumulative doses of antagonist), the “5-HT-Induced Pressor Response ED50” value turned out to be 0.013 mg/kg. Besides, the “Antihypertensive Activity, p.o., % AMAP (maximal change in mean arterial pressure)” value in assay [5] is on record as -33%. In addition, the “Phenylephrine-Induced Pressor Response ED50” value in assay [6] worked out at 1.08 mg/kg.
